Test results from patent US20080051418A1, “Arylalkanoic Acid Derivative” (priority 2004, published 2008).

Structure (SMILES)	melting point [°C]
CCCn1nc(OCc2ccc3ccccc3n2)cc1COc1c(CC)cccc1CC(=O)O [Example 5, (3-ethyl-2-{[1-propyl-3-(quinolin-2-ylmethoxy)-1H-pyrazol-5-yl]methoxy}phenyl)acetic acid]	118 to 119
CCCOc1cc(COc2c(CC)cccc2CC(=O)O)n(Cc2ccc3ccccc3n2)n1 [Example 7, (3-ethyl-2-{[3-propoxy-1-(quinolin-2-ylmethyl)-1H-pyrazol-5-yl]methoxy}phenyl)acetic acid]	110 to 111
COc1cccc(CC(=O)O)c1OCc1cc(OC(C)C)nn1Cc1ccc2ccccc2n1 [Example 8, (2-{[3-isopropoxy-1-(quinolin-2-ylmethyl)-1H-pyrazol-5-yl]methoxy}-3-methoxyphenyl)acetic acid]	129 to 130
COc1cccc(CC(=O)O)c1OCc1cc(OCc2ccc3ccccc3n2)n(C(C)C)n1 [Example 9, (2-{[1-isopropyl-5-(quinolin-2-ylmethoxy)-1H-pyrazol-3-yl]methoxy}-3-methoxyphenyl)acetic acid]	84 to 85
COc1cccc(CC(=O)O)c1OCCCc1cc(OC(C)C)nn1Cc1ccc2ccccc2n1 [Example 10, (2-{3-[3-isopropoxy-1-(quinolin-2-ylmethyl)-1H-pyrazol-5-yl]propoxy}-3-methoxyphenyl)acetic acid]	129 to 130
CCCOc1cc(CCCOc2c(CC(=O)O)cccc2OC)n(Cc2ccc3ccccc3n2)n1 [Example 11, (3-methoxy-2-{3-[3-propoxy-1-(quinolin-2-ylmethyl)-1H-pyrazol-5-yl]propoxy}phenyl)acetic acid]	97 to 98
CCOc1cccc(CC(=O)O)c1OCCCc1cc(OC(C)C)nn1Cc1ccc(Cl)cc1Cl [Example 23, (2-{3-[1-(2,4-dichlorobenzyl)-3-isopropoxy-1H-pyrazol-5-yl]propoxy}-3-ethoxyphenyl)acetic acid]	132 to 133
Cc1cccc(CC(=O)O)c1OCCCc1cc(OC(C)C)nn1Cc1ccc(Cl)cc1Cl [Example 24, (2-{3-[1-(2,4-dichlorobenzyl) -3-isopropoxy-1H-pyrazol-5-yl]propoxy}-3-methylphenyl)acetic acid]	70 to 71
CCOc1cc(CCCOc2c(CC(=O)O)cccc2OC)n(Cc2ccc(Cl)cc2Cl)n1 [Example 26, (2-{3-[1-(2,4-dichlorobenzyl)-3-ethoxy-1H-pyrazol-5-yl]propoxy}-3-methoxyphenyl)acetic acid]	109 to 110

Results, then the compound that gave them:

melting point [°C]	Structure (SMILES)
111 to 112	COc1cc(CCCOc2c(CC(=O)O)cccc2OC)n(Cc2ccc(Cl)cc2Cl)n1 [Example 28, (2-{3-[1-(2,4-dichlorobenzyl)-3-methoxy-1H-pyrazol-5-yl]propoxy}-3-methoxyphenyl)acetic acid]
98 to 99	CCc1cccc(CC(=O)O)c1OCCCc1cc(OC(C)C)nn1Cc1ccc(Cl)cc1Cl [Example 29, (2-{3-[1-(2,4-dichlorobenzyl)-3-isopropoxy-1H-pyrazol-5-yl]propoxy}-3-ethylphenyl)acetic acid]
96 to 97	CC(C)Oc1cc(CCCOc2nn(C)cc2CC(=O)O)n(Cc2ccc(Cl)cc2Cl)n1 [Example 32, (3-{3-[1-(2,4-dichlorobenzyl)-3-isopropoxy-1H-pyrazol-5-yl]propoxy}-1-methyl-1H-pyrazol-4-yl)acetic acid]
127 to 128	COc1cccc(CC(=O)O)c1OCc1cc(OC(C)C)nn1Cc1ccc(Cl)cc1Cl [Example 50, (2-{[1-(2,4-dichlorobenzyl)-3-isopropoxy-1H-pyrazol-5-yl]methoxy}-3-methoxyphenyl)acetic acid]
106 to 107	CC(C)c1nc(CCCOc2ncccc2CC(=O)O)c(Cc2ccc(Cl)cc2Cl)s1 [Example 53, (2-{3-[5-(2,4-dichlorobenzyl)-2-isopropyl-1,3-thiazol-4-yl]propoxy}pyridin-3-yl)acetic acid]
